Tests used:
Type in all cases: toxicity, cell-based
Fibroblast = assay: Incucyte cell viability with human fibroblast; conditions: 10 µM, compound concentration 10 uM
U2OS = assay: Incucyte cell viability with U2OS; conditions: human, 10 µM, compound concentration 10 uM
HEK-293T = assay: Incucyte cell viability with HEK293T; conditions: human, 10 µM, compound concentration 10 uM
[1] = 0 h, replicate number 1, timepoint 0 hours
[2] = 18 h, replicate number 1, timepoint 18 hours
[3] = 24 h, replicate number 1, timepoint 24 hours
[4] = 24 h, replicate number 2, timepoint 24 hours
[5] = 0 h, replicate number 2, timepoint 0 hours
[6] = 6 h, replicate number 1, timepoint 6 hours
[7] = 12 h, replicate number 1, timepoint 12 hours
[8] = 6 h, replicate number 2, timepoint 6 hours
[9] = 12 h, replicate number 2, timepoint 12 hours
[10] = 18 h, replicate number 2, timepoint 18 hours
Note: filed as whole numbers so only -1 and 0 and 1 occur.

## CNC(=O)c1ccccc1Nc1cc(Nc2ccc(N3CCOCC3)cc2OC)ncc1C(F)(F)F [VS-4718]
Fibroblast; [1]
  Growth Rate: 0
Fibroblast; [2]
  Growth Rate: 1
Fibroblast; [3]
  Growth Rate: 0
Fibroblast; [4]
  Growth Rate: 1
U2OS; [1]
  Growth Rate: 1
U2OS; [5]
  Growth Rate: 0
U2OS; [6]
  Growth Rate: 0
U2OS; [7]
  Growth Rate: 0
U2OS; [2]
  Growth Rate: 0
U2OS; [3]
  Growth Rate: 0
HEK-293T; [6]
  Growth Rate: 0
HEK-293T; [7]
  Growth Rate: 0
HEK-293T; [2]
  Growth Rate: 0
HEK-293T; [3]
  Growth Rate: 0

## C=CC(=O)Nc1ccc2[nH]c(=O)n(C3CCN(C(=O)c4ccc(-c5nc6cc[nH]c(=O)c6cc5-c5ccccc5)cc4)CC3)c2c1
Fibroblast; [1]
  Growth Rate: 0
Fibroblast; [7]
  Growth Rate: 1
Fibroblast; [2]
  Growth Rate: 1
Fibroblast; [3]
  Growth Rate: 1
U2OS; [5]
  Growth Rate: 0
U2OS; [6]
  Growth Rate: 1
U2OS; [7]
  Growth Rate: 1
U2OS; [2]
  Growth Rate: 1
U2OS; [3]
  Growth Rate: 1
HEK-293T; [1]
  Growth Rate: 0
HEK-293T; [4]
  Growth Rate: 1

## COc1ccnc(N2CCC3(CCCN(Cc4c[nH]c5ccccc45)C3=O)CC2)n1
Fibroblast; [1]
  Growth Rate: 0
Fibroblast; [6]
  Growth Rate: 0
Fibroblast; [7]
  Growth Rate: 0
Fibroblast; [2]
  Growth Rate: 0
Fibroblast; [3]
  Growth Rate: 0
U2OS; [1]
  Growth Rate: 1
U2OS; [8]
  Growth Rate: 0
U2OS; [7]
  Growth Rate: 1
U2OS; [9]
  Growth Rate: 0
U2OS; [2]
  Growth Rate: 1
U2OS; [3]
  Growth Rate: 0
HEK-293T; [1]
  Growth Rate: 0
HEK-293T; [6]
  Growth Rate: 1
HEK-293T; [7]
  Growth Rate: 1
HEK-293T; [9]
  Growth Rate: 0
HEK-293T; [2]
  Growth Rate: 1
HEK-293T; [10]
  Growth Rate: 0
HEK-293T; [3]
  Growth Rate: 1
HEK-293T; [4]
  Growth Rate: 0

## COc1cc(-c2cn(C)c(=O)c3cnccc23)c(OC)cc1CN(C)C
Fibroblast; [1]
  Growth Rate: 0
Fibroblast; [6]
  Growth Rate: 0
Fibroblast; [8]
  Growth Rate: 1
Fibroblast; [7]
  Growth Rate: 0
Fibroblast; [2]
  Growth Rate: 0
Fibroblast; [3]
  Growth Rate: 0
U2OS; [1]
  Growth Rate: 0
U2OS; [6]
  Growth Rate: 0
U2OS; [8]
  Growth Rate: 1
U2OS; [7]
  Growth Rate: 1
U2OS; [2]
  Growth Rate: 0
U2OS; [10]
  Growth Rate: 1
U2OS; [3]
  Growth Rate: 1
HEK-293T; [1]
  Growth Rate: 1
HEK-293T; [8]
  Growth Rate: 1
HEK-293T; [7]
  Growth Rate: 1
HEK-293T; [2]
  Growth Rate: 0
HEK-293T; [3]
  Growth Rate: 0
HEK-293T; [4]
  Growth Rate: 1

## CC(=O)c1c(NS(C)(=O)=O)c2cc(-c3ccc(Cl)cc3)c(-c3ccc(Cl)cc3Cl)nc2n(C)c1=O [MRL-CB1-NC]
Fibroblast; [1]
  Growth Rate: 0
Fibroblast; [6]
  Growth Rate: 0
Fibroblast; [7]
  Growth Rate: 0
Fibroblast; [2]
  Growth Rate: 0
Fibroblast; [3]
  Growth Rate: 0
U2OS; [1]
  Growth Rate: 0
U2OS; [5]
  Growth Rate: 1
U2OS; [8]
  Growth Rate: 1
U2OS; [7]
  Growth Rate: 1
U2OS; [2]
  Growth Rate: 1
U2OS; [3]
  Growth Rate: 1
HEK-293T; [1]
  Growth Rate: 1
HEK-293T; [5]
  Growth Rate: 0
HEK-293T; [6]
  Growth Rate: 0
HEK-293T; [7]
  Growth Rate: 0
HEK-293T; [9]
  Growth Rate: 1
HEK-293T; [2]
  Growth Rate: 0
HEK-293T; [3]
  Growth Rate: 0

## Cc1nc(NC(=O)N2CCC[C@H]2C(N)=O)sc1-c1ccnc(C(C)(C)C(F)(F)F)c1 [ALPELISIB]
Fibroblast; [1]
  Growth Rate: 1
Fibroblast; [5]
  Growth Rate: 0
Fibroblast; [8]
  Growth Rate: 1
Fibroblast; [7]
  Growth Rate: 1
Fibroblast; [9]
  Growth Rate: 0
Fibroblast; [2]
  Growth Rate: 1
Fibroblast; [10]
  Growth Rate: 0
Fibroblast; [3]
  Growth Rate: 1
Fibroblast; [4]
  Growth Rate: 0
U2OS; [1]
  Growth Rate: 1
U2OS; [5]
  Growth Rate: 0
U2OS; [6]
  Growth Rate: 1
U2OS; [7]
  Growth Rate: 1
U2OS; [2]
  Growth Rate: 0
U2OS; [10]
  Growth Rate: 1
U2OS; [3]
  Growth Rate: 0
U2OS; [4]
  Growth Rate: 1
HEK-293T; [6]
  Growth Rate: 0
HEK-293T; [9]
  Growth Rate: 0
HEK-293T; [2]
  Growth Rate: 1
HEK-293T; [3]
  Growth Rate: 1

## CC1(C)C(=O)C(C)(C)c2cc(C(=O)Nc3ccc(C(=O)O)cc3)ccc21
Fibroblast; [1]
  Growth Rate: 0
Fibroblast; [5]
  Growth Rate: 1
Fibroblast; [6]
  Growth Rate: 0
Fibroblast; [7]
  Growth Rate: 0
Fibroblast; [2]
  Growth Rate: 0
Fibroblast; [10]
  Growth Rate: 1
Fibroblast; [3]
  Growth Rate: 0
U2OS; [1]
  Growth Rate: 0
U2OS; [8]
  Growth Rate: 1
U2OS; [7]
  Growth Rate: 0
U2OS; [9]
  Growth Rate: 1
U2OS; [2]
  Growth Rate: 1
U2OS; [3]
  Growth Rate: 1
HEK-293T; [1]
  Growth Rate: 0
HEK-293T; [8]
  Growth Rate: 1
HEK-293T; [7]
  Growth Rate: 1
HEK-293T; [2]
  Growth Rate: 1
HEK-293T; [3]
  Growth Rate: 1

## Cc1ccc2nc(CNCCCOc3ccccc3)cc(O)c2c1 [UCSF924]
Fibroblast; [5]
  Growth Rate: 1
Fibroblast; [6]
  Growth Rate: 0
Fibroblast; [8]
  Growth Rate: 1
Fibroblast; [7]
  Growth Rate: 0
Fibroblast; [2]
  Growth Rate: 0
Fibroblast; [3]
  Growth Rate: 0
U2OS; [1]
  Growth Rate: 0
U2OS; [6]
  Growth Rate: 0
U2OS; [7]
  Growth Rate: 0
U2OS; [2]
  Growth Rate: 0
U2OS; [3]
  Growth Rate: 0
HEK-293T; [1]
  Growth Rate: 0
HEK-293T; [5]
  Growth Rate: 1
HEK-293T; [6]
  Growth Rate: 0
HEK-293T; [7]
  Growth Rate: 0
HEK-293T; [2]
  Growth Rate: 0
HEK-293T; [3]
  Growth Rate: 0

## CC(C)C[C@H](CO)Nc1nc(S[C@@H](C)c2ccccc2)nc2nc(N)sc12 [AZD-8797]
Fibroblast; [1]
  Growth Rate: 1
Fibroblast; [5]
  Growth Rate: 0
Fibroblast; [6]
  Growth Rate: 0
Fibroblast; [7]
  Growth Rate: 0
Fibroblast; [9]
  Growth Rate: 1
Fibroblast; [2]
  Growth Rate: 0
Fibroblast; [10]
  Growth Rate: 1
Fibroblast; [3]
  Growth Rate: 0
Fibroblast; [4]
  Growth Rate: 1
U2OS; [6]
  Growth Rate: 0
U2OS; [7]
  Growth Rate: 0
U2OS; [2]
  Growth Rate: 0
U2OS; [3]
  Growth Rate: 0
HEK-293T; [1]
  Growth Rate: 1
HEK-293T; [5]
  Growth Rate: 0
HEK-293T; [6]
  Growth Rate: 0
HEK-293T; [8]
  Growth Rate: 1
HEK-293T; [7]
  Growth Rate: 0
HEK-293T; [9]
  Growth Rate: 1
HEK-293T; [2]
  Growth Rate: 0
HEK-293T; [3]
  Growth Rate: 0

## CC(C)(C(=O)O)c1ccc(C(O)CCCN2CCC(C(O)(c3ccccc3)c3ccccc3)CC2)cc1.Cl (stereo not given) [FEXOFENADINE HYDROCHLORIDE]
Fibroblast; [1]
  Growth Rate: 0
Fibroblast; [5]
  Growth Rate: 1
Fibroblast; [6]
  Growth Rate: 0
Fibroblast; [7]
  Growth Rate: 0
Fibroblast; [9]
  Growth Rate: 1
Fibroblast; [2]
  Growth Rate: 0
Fibroblast; [10]
  Growth Rate: 1
Fibroblast; [3]
  Growth Rate: 0
Fibroblast; [4]
  Growth Rate: 1
U2OS; [5]
  Growth Rate: 0
U2OS; [8]
  Growth Rate: 0
U2OS; [7]
  Growth Rate: 1
U2OS; [2]
  Growth Rate: 1
U2OS; [10]
  Growth Rate: 0
U2OS; [3]
  Growth Rate: 1
U2OS; [4]
  Growth Rate: 0
HEK-293T; [1]
  Growth Rate: 1
HEK-293T; [5]
  Growth Rate: 0
HEK-293T; [6]
  Growth Rate: 1
HEK-293T; [7]
  Growth Rate: 1
HEK-293T; [2]
  Growth Rate: 1
HEK-293T; [3]
  Growth Rate: 1

## Cn1cc(CCn2cnc(-c3cnn(C)c3)c2-c2ccc(C#N)cc2)cn1
Fibroblast; [5]
  Growth Rate: 0
Fibroblast; [6]
  Growth Rate: 0
Fibroblast; [8]
  Growth Rate: 1
Fibroblast; [7]
  Growth Rate: 1
Fibroblast; [2]
  Growth Rate: 1
Fibroblast; [10]
  Growth Rate: 0
Fibroblast; [3]
  Growth Rate: 1
Fibroblast; [4]
  Growth Rate: 0
U2OS; [1]
  Growth Rate: 1
U2OS; [5]
  Growth Rate: 0
U2OS; [6]
  Growth Rate: 1
U2OS; [7]
  Growth Rate: 1
U2OS; [2]
  Growth Rate: 1
U2OS; [10]
  Growth Rate: 0
U2OS; [3]
  Growth Rate: 1
HEK-293T; [1]
  Growth Rate: 1
HEK-293T; [8]
  Growth Rate: 1
HEK-293T; [9]
  Growth Rate: 1
HEK-293T; [2]
  Growth Rate: 1
HEK-293T; [3]
  Growth Rate: 1

## CC(C)c1onc(-c2c(Cl)cccc2Cl)c1COc1ccc(/C=C/c2cccc(C(=O)O)c2)c(Cl)c1
Fibroblast; [1]
  Growth Rate: 0
Fibroblast; [5]
  Growth Rate: 1
Fibroblast; [6]
  Growth Rate: 1
Fibroblast; [7]
  Growth Rate: 1
Fibroblast; [2]
  Growth Rate: 0
Fibroblast; [10]
  Growth Rate: 1
Fibroblast; [3]
  Growth Rate: 0
Fibroblast; [4]
  Growth Rate: 1
U2OS; [1]
  Growth Rate: 0
U2OS; [7]
  Growth Rate: 1
U2OS; [2]
  Growth Rate: 1
U2OS; [3]
  Growth Rate: 1
HEK-293T; [1]
  Growth Rate: 0
HEK-293T; [6]
  Growth Rate: 1
HEK-293T; [7]
  Growth Rate: 0
HEK-293T; [9]
  Growth Rate: 1
HEK-293T; [2]
  Growth Rate: 0
HEK-293T; [3]
  Growth Rate: 0

## C=C(c1ccc(C(=O)O)cc1)c1cc2c(cc1C)C(C)(C)CCC2(C)C [BEXAROTENE]
Fibroblast; [1]
  Growth Rate: 0
Fibroblast; [7]
  Growth Rate: 1
Fibroblast; [2]
  Growth Rate: 1
Fibroblast; [3]
  Growth Rate: 1
U2OS; [1]
  Growth Rate: 0
U2OS; [5]
  Growth Rate: -1
U2OS; [7]
  Growth Rate: 1
U2OS; [2]
  Growth Rate: 1
U2OS; [3]
  Growth Rate: 1
HEK-293T; [1]
  Growth Rate: 1
HEK-293T; [5]
  Growth Rate: 0
HEK-293T; [6]
  Growth Rate: 0
HEK-293T; [8]
  Growth Rate: 1
HEK-293T; [7]
  Growth Rate: 0
HEK-293T; [9]
  Growth Rate: 1
HEK-293T; [2]
  Growth Rate: 0
HEK-293T; [3]
  Growth Rate: 0

From ChEMBL document CHEMBL4689842, “EUbOPEN Chemogenomics Library wave 1” (2021)
